Experimental data from patent US20190352276A1, “INHIBITORS OF BRUTON'S TYROSINE KINASE” (Joint Stock Company "Biocad", priority 2016, published 2019).
Where two headings read alike, the source gives them in different places.

Assays:
[1] = human, microsomes
Protocol: 2) Metabolic Stability in Human Liver Microsomes
The rate of enzymatic decomposition of a compound was detected by incubating the reaction mixture in a dry block heater at 37° C.; the reaction mixture contained 0.5 mg/mL of pooled human liver microsomes (XenoTech, USA, cat# H6010), 10 mM of a drug candidate, 2 mM β-nicotinamide adenine dinucleotide (Carbosynth, UK, cat#NN10871) and 4 mM of magnesium chloride in 0.1M sodium phosphate buffer pH=7.4. The reaction was terminated by adding 100 μL of acetonitrile for each 100 μL of the reaction mixture. After the reaction was terminated, the samples were centrifuged for 10 min at 10000 rpm. The supernatant was chromatographed using Agilent 1200 chromatograph (Agilent, USA). We used gradient elution (1 mL/min flow rate). We plotted a calibration curve of the logarithm of the peak area vs. time. The gradient of the line corresponded to the elimination rate constant k. Based on the constant, determined using the curve, we calculated the drug's half-life (T1/2) and metabolism rate (CLint).

[2] = Permeability through the monolayer of Caco-2 cells; assay type: in vitro ADME; settings: human; for Papp A→B at 2 h, 10 μM / Papp B→A at 2 h, 10 μM: 2 h at 37° C.; for efflux ratio at 2 h, 10 μM: read-out: efflux (Papp B-A/Papp A-B)
Procedure, shortened: (§1)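 Caco-2 monolayers grown 21 days on 0.4 μm transwell filters, integrity checked with Lucifer Yellow. Compounds at 10 μM were added apically at pH 6.5 (A→B) or basolaterally at pH 7.4 with 1% BSA (B→A) and sampled after 2 h. Concentrations by HPLC; Papp calculated, efflux ratio as Papp B-A/Papp A-B.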

[3] = target: T1, recombinant Btk kinase enzyme (Homo sapiens, UniProt Q06187); experiment: In vitro inhibition of Btk kinase activity (ADP-Glo); assay type: biochemical; settings: read-out: IC50 kinase BTK
T1 construct: purchased SignalChem B10-10H
Protocol: To assess Btk kinase activity described herein, SignalChem kinase system was used. Btk kinase activity was determined in the reaction between recombinant Btk kinase enzyme (SignalChem #B10-10H) and Poly (4:1 Glu, Tyr) peptide substrate in the presence of the inhibitor.
(§2) Staurosporine (Abcam Biochemicals, ab146588) was used as a reference inhibitor and 0.1% DMSO in the reaction buffer—as a negative control. The solution of 0.5 mg/mL peptide substrate and 50 &M ATP in the same buffer were added; the solution was incubated for 180 minutes at 37° C. To detect the amount of ATP taken up during the kinase reaction, the equivalent amount of ADP (from the ADP Glo Detection Kit (Promega, #V9101)) was used according to the protocol. The reaction mixture was equilibrated to room temperature. 25 µL of ADP-Glo Reagent were added into each well; the plate was incubated for 40 minutes. 50 μL of Kinase Detection Reagent were added; the plate was incubated for 30 minutes. The luminescence was measured with multimode plate reader (Tecan Infinite M200Pro, Switzerland). IC50 values were calculated using Magellan 7.2 software (Tecan, Switzerland) approximating experimental points by four-parameter logistic model with the optimization by Levenberg-Marquardt.

[4] = tested on: Mino (mantle cell lymphoma); experiment: Antiproliferative activity, Mino cells (Alamar Blue); assay type: cell-based; settings: Homo sapiens
Procedure, shortened: (§3)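 RPMI-1640/10% FBS/gentamicin, ~3*10^4 cells/well; cpd in DMSO (final <1%), 72 h, 37 °C, 5% CO2. Alamar Blue 14-16 h; fluor. Ex540/Em590. IC50 from 4-parameter logistic (Levenberg-Marquardt).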

[5] = tested on: Z-138 (mantle cell lymphoma); experiment: Antiproliferative activity, Z-138 cells (Alamar Blue); assay type: cell-based; settings: Homo sapiens
Procedure, shortened: as §3

EGFR = target: T2, EGFR (Homo sapiens, UniProt P00533); experiment: In vitro kinase panel: EGFR; assay type: biochemical; settings: Table 9 kinase panel
T2 construct: purchased SignalChem E10-11G
Protocol: as §2, with “The measurements were carried out in a 25 μL reaction volume using a 96-well plate (Corning, #3642). The kinase enzyme and inhibitor were pre-incubated for 10 minutes in the reaction buffer containing 25 mM of MOPS (pH 7.2), 12.5 mM of 0-glycerophosphate, 27 mM of MgCl2, 2 mM of MnCl2, 5 mM of EGTA, 2 mM of EDTA, 0.3 mM of DTT, and 1.2 mg/mL of bovine serum albumin. Staurosporine” for “Staurosporine”
For active compounds selected by screening using the target enzyme BTK, the values of IC50 were determined on a kinase panel: EGFR (SignalChem, #E10-11G), ITK (SignalChem, #I13-10G) and TEC (SignalChem, #T03-10G).

[6] = tested on: HepG2 cells (hepatocellular carcinoma); experiment: General cytotoxicity on HepG2 cells (CC50; therapeutic index CC50 HepG2/IC50 Mino); assay type: cell-based; settings: therapeutic index
Procedure, shortened: (§4)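 Cells seeded at 2*10^4 per well in DMEM, compounds added after 24 h at 200 μM to 4 μM final and incubated 72 h. Viability read with Alamar Blue to derive CC50; therapeutic index is CC50 (HepG2) divided by IC50 (Mino).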

[7] = as above; assay type: cell-based; settings: human, HepG2 cells (hepatocellular carcinoma), 72 hours, Alamar Blue
Procedure, shortened: as §4

Caco-2 cells = experiment: Permeability through the monolayer of Caco-2 cells; assay type: in vitro ADME
Procedure, shortened: as §1

[8] = tested on: DOHH2 (follicular lymphoma); experiment: Antiproliferative activity, DOHH2 cells (Alamar Blue); assay type: cell-based; settings: Homo sapiens, DOHH-2, Table 10, 72 h, average of several tests
Procedure, shortened: as §3

[9] = Chemical stability in artificial gastric fluid (SGF without enzymes); settings: 10 μM in SGF without enzymes, pH=1.4, 37° C.
[10] = Stability in human blood plasma; settings: 10 μM in pooled human blood plasma, incubated 4 hours at 37° C.
[11] = Table 10, 72 h, average of several tests
[12] = Table 10, average of several tests

T1 sequence (Q06187 whole entry): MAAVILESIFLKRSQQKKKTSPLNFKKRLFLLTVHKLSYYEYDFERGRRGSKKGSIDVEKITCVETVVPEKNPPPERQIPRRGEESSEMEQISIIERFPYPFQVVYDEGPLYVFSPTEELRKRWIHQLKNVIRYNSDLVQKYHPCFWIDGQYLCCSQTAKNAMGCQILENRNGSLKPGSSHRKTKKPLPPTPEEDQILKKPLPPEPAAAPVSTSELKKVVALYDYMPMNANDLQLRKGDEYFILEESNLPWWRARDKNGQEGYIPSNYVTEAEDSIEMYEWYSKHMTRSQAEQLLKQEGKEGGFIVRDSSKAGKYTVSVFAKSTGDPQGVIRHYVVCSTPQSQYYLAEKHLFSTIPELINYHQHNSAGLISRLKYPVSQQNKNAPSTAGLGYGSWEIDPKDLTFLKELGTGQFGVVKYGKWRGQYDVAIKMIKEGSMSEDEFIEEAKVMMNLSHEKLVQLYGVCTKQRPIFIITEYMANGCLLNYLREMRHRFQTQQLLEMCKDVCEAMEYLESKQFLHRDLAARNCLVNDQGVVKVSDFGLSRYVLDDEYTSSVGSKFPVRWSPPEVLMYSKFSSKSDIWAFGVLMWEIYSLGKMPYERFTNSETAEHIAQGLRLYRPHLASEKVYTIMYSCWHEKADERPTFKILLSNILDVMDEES
T2 sequence (P00533 672-1210 limits assumed): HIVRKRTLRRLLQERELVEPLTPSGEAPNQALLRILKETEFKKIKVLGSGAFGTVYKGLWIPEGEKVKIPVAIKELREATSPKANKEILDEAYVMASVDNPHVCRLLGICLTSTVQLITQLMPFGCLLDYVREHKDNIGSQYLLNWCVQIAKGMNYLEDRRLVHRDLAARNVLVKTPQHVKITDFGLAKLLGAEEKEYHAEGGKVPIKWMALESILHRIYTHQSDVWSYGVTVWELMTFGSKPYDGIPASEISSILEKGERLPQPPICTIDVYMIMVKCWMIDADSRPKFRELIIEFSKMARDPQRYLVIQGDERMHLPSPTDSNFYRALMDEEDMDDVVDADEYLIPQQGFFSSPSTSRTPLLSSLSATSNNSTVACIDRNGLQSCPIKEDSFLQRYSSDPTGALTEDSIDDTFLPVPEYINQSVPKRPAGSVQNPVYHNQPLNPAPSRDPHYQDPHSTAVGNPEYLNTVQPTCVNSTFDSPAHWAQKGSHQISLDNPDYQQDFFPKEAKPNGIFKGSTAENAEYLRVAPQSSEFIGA

Papp A→B at 2 h, 10 μM [2] [×10⁻⁶ cm/s]	Papp B→A at 2 h, 10 μM [2] [×10⁻⁶ cm/s]	efflux (Papp B-A/Papp A-B) (Caco-2 cells)	IC50 ([3]; Table 8, ADP-Glo) [µM]	IC50 [4, 11] [µM]	IC50 [8] [µM]	IC50 [5, 11] [µM]	Structure (SMILES)	CC50 (HepG2)/IC50 (Mino) ([6]; Table 10)	CC50 at 72 h [7, 12] [µM]	also measured
25.8	12	–	–	–	–	–	C=CC(=O)N1CCC[C@@H](n2nc(-c3ccc(Oc4ccncc4)cc3)c3c(N)ncc(C#N)c32)C1 [BCD-BTK-134, (R)-1-(1-acryloylpiperidin-3-yl)-4-amino-3-(4-(pyridin-4-yloxy)phenyl)-1H-pyrazolo[4,3-c]pyridin-7-carbonitrile]	–	–	efflux ratio at 2 h, 10 μM [2]: 0.4; IC50 ([3]; Table 9 kinase panel): 0.00116 µM; IC50 ([4]; Table 11, 72 h): 11.6 µM; IC50 ([5]; Table 11, 72 h): 21.2 µM; IC50 (EGFR): 0.127 µM; CC50 (HepG2)/IC50 (Mino) ([6]; Table 11): 5.80; CC50 at 72 h ([7]; Table 11): 64 µM
–	–	–	0.01	21.3	11.5	15.5	C=CC(=O)N1CCC[C@@H](n2nc(-c3ccc(Oc4ccncc4)cc3)c3c(N)nccc32)C1 [BCD-BTK-241, (R)-1-(1-acryloylpiperidin-3-yl)-4-amine-3-(4-(pyridin-4-yloxy)phenyl)-1H-pyrazolo[4,3-c]pyridine]	2.13	45.4	IC50 (EGFR): 0.0252 µM
9.5	2.2	–	0.0132	3.61	4.99	12.6	C=CC(=O)N1CC[C@H](n2nc(-c3ccc(Oc4ccncc4)cc3)c3cncc(Cl)c32)C1 [BCD-BTK-266, (S)-1-(3-(7-chloro-3-(4-(pyridin-4-yloxy)phenyl)-1H-pyrazolo[4,3-c]pyridin-1-yl)pyrrolidin-1-yl)prop-2-en-1-one]	3.33	12	efflux ratio at 2 h, 10 μM [2]: 0.23; Amount of substance in the sample, % (stability in human blood plasma) [10]: 87.2%; Amount of substance in the sample in % (chemical stability) [9]: 100%

Continued, compound first:

Structure (SMILES)	Papp A→B at 2 h, 10 μM [2] [×10⁻⁶ cm/s]	Papp B→A at 2 h, 10 μM [2] [×10⁻⁶ cm/s]	efflux (Papp B-A/Papp A-B) (Caco-2 cells)	IC50 ([3]; Table 8, ADP-Glo) [µM]	IC50 [4, 11] [µM]	IC50 [8] [µM]	IC50 [5, 11] [µM]	CC50 (HepG2)/IC50 (Mino) ([6]; Table 10)	CC50 at 72 h [7, 12] [µM]	also measured
C=CC(=O)N1CCC[C@@H](n2nc(-c3ccc(Oc4ccncc4)cc3)c3c(N)nccc32)C1 [BCD-BTK -241, (R)-1-(1-acryloylpiperidin-3-yl)-4-amine-3-(4-(pyridin-4-yloxy)phenyl)-1H-pyrazolo[4,3-c]pyridine]	–	–	–	–	–	–	–	–	–	Clint (microsome metabolic stability) [1]: 27.4 µL/min/mg
C=CC(=O)N1CCC[C@@H](n2nc(-c3ccc(C(=O)Nc4cc(C(F)(F)F)ccn4)cc3)c3cncc(Cl)c32)C1 [BCD-BTK-210, (R)-4-(1-(1-acryloylpiperidin-3-yl)-7-chloro-1H-pyrazolo[4,3-c]pyridin-3-yl)-N-(4-(trifluoromethyl)pyridin-2-yl)benzamide]	11.9	0.21	0.02	–	–	–	–	–	–	–
C=CC(=O)N1CCC[C@@H](n2nc(-c3ccc(C(=O)Nc4cc(C(F)(F)CC)ccn4)cc3)c3cncc(F)c32)C1 [BCD-BTK-214, (R)-4-(1-(1-acryloylpiperidin-3-yl)-7-fluoro-1H-pyrazolo[4,3-c]pyridin-3-yl)-N-(4-(1,1-difluoropropyl)pyridin-2-yl)benzamide]	17.8	0.87	0.05	0.0343	1.28	> 100	89.4	>77.94	> 100	–
C=CC(=O)N1CCC[C@@H](n2nc(-c3ccc(C(=O)Nc4cccc(F)n4)cc3)c3cncc(C#N)c32)C1 [BCD-BTK-223, 4-{7-cyano-1-[(3R)-1-(prop-2-enoyl)piperidin-3-yl]-1H-pyrazolo[4,3-c]pyridin-3-yl}-N-(6-fluoropyridin-2-yl)benzamide]	5.9	0.3	0.05	–	–	–	–	–	–	Amount of substance in the sample in % (chemical stability) [9]: 96.7%
C=CC(=O)N1CCC[C@@H](n2nc(-c3cnc(C(=O)Nc4cc(C(F)(F)CC)ccn4)nc3)c3cncc(Cl)c32)C1 [BCD-BTK-293, (R)-5-(1-(1-acryloylpiperidin-3-yl)-7-chloro-1H-pyrazolo[4,3-c]pyridin-3-yl)-N-(4-(1,1-difluoropropyl)pyridin-2-yl)pyrimidine-2-carboxamide]	6.17	0.37	0.06	–	4.3	> 100	> 50	>23.23	> 100	–
